Patent publication US11034725B2, “Compositions and methods for treating cardiovascular disease” (Genentech, Inc., priority 2016, dated 2021)
Where two headings read alike, the source gives them in different places. Numbered stars: 1 amine (or outer) side, 2 acyl side, 3 side chain; on linkers, the order of the positions; unused ones are H or OH. Peptide text beside a SMILES is read from it. * marks the point of attachment. Propanoyl(3-(4-MeO-Ph)) = COc1ccc(CCC(=O)*)cc1; Propanoyl(3-(3-pyridyl)) = O=C(CCc1cccnc1)*; Benzoyl(4-Ph) = O=C(c1ccc(-c2ccccc2)cc1)*; X43 = CS(=O)(=O)c1ccc(C(=O)CCC(=O)*)cc1; Desaminotyrosyl = O=C(CCc1ccc(O)cc1)*; Pentanoyl(5-Ph) = O=C(CCCCc1ccccc1)*; Propanoyl(3-cHex) = O=C(CCC1CCCCC1)*; X16 = O=C(c1cc(-c2ccncc2)[nH]n1)*; X37 = Cc1ccc(C(=O)CCC(=O)*)cc1; X39 = O=C(C1CCC(c2ccccc2)CC1)*; X22 = O=C(C1CC(Cc2ccccc2)C1)*; X8 = O=C(c1ccc(N2CCOCC2)nc1)*; Suc = O=C(CCC(=O)[*:2])[*:1]; X40 = CC(CC(=O)*)CC(C)(C)C; X10 = Nc1cccc(CCC(=O)*)c1; X29 = Nc1ccc(CCC(=O)*)cc1; X30 = O=C(CCc1cccc(O)c1)*; X35 = Nc1ccc(CCC(=O)*)cn1; Morpholide = C1CN(*)CCO1; X27 = O=C(CCCN1CCOCC1)*; Cbz = O=C(OCc1ccccc1)*; X2 = CC(C)(C)CCCC(=O)*; GABA = NCCCC(=O)O

Columns and labels:
[1] = target: T1, PCSK9Δhelix (Homo sapiens, UniProt Q8NBP7); assay: PCSK9Δhelix/Ab20 TR-FRET binding assay; details: Table 8E, additional compounds
T1 construct: Human PCSK9 construct M1-Q692 with an engineered TEV site (residue deletion Y166, R167); made in house; host or cells: CHO
T1 sequence (Q8NBP7 with tags, fused parts or gaps limits assumed): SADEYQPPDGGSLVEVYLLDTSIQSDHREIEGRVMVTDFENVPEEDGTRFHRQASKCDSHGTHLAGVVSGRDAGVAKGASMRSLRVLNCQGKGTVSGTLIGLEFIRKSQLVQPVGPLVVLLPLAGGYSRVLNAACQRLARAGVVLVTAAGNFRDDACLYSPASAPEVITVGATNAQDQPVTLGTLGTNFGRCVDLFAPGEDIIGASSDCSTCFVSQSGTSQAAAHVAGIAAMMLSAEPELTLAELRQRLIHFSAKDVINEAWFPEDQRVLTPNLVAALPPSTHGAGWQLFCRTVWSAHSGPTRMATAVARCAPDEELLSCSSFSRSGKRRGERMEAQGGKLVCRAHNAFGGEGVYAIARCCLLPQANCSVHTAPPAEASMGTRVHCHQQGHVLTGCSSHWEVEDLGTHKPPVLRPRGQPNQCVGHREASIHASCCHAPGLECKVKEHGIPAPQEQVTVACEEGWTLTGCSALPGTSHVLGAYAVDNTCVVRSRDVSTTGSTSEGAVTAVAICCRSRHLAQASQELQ
T1 sequence (Q8NBP7 31-152 partner limits assumed): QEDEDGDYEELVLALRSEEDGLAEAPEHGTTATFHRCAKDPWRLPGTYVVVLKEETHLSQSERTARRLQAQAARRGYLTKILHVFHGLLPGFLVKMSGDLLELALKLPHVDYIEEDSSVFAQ

[2] = target: PCSK9 (Homo sapiens, UniProt Q8NBP7); assay: PCSK9/EGF(A) TR-FRET binding assay; details: Table 8E, additional compounds
Chain of PCSK9 (Q8NBP7 153-692): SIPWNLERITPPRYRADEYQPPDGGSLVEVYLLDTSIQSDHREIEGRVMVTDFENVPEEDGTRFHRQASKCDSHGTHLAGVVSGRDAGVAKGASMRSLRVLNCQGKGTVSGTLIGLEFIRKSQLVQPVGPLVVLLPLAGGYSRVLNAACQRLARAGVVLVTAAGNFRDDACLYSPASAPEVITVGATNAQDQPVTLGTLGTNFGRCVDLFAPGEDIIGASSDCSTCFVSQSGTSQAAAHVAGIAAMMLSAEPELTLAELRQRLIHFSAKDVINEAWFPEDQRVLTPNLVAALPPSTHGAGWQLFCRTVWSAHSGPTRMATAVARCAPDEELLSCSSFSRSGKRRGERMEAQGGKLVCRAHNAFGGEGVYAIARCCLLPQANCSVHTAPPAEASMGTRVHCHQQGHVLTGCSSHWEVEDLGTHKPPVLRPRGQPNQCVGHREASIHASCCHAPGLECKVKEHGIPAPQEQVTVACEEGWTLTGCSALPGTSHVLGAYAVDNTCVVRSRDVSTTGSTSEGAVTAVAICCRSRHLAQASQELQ
Chain of PCSK9 (Q8NBP7 31-152 partner limits assumed): as the sequence (Q8NBP7 31-152 partner limits assumed) above

[3] = TR-FRET, read-out: PCSK9Δhelix/Ab20 IC50
[4] = TR-FRET, read-out: PCSK9/EGF(A) IC50

Compound | IC50 [1, 3] | IC50 [2, 4] | IC50 ([1]; PCSK9Δhelix/Ab20 IC50, TR-FRET) | IC50 ([2]; PCSK9/EGF(A) IC50, TR-FRET)
CC[C@H](C)[C@H](NC(=O)[C@H](CCCNC(=N)N)NC(=O)[C@@H](NC(=O)[C@H](CC(C)C)NC(=O)[C@H](CC(N)=O)NC(=O)[C@H](Cc1c[nH]c2ccccc12)NC(=O)C1CC(Cc2ccccc2)C1)C(C)C)C(=O)NCC(=O)N[C@@H](CC(C)C)C(=O)N[C@@H](CC(C)C)C(=O)N[C@@H](CCCNC(=N)N)C(N)=O (stereo partly drawn) [Compound 144] (X22-WNLVRIGLLR-NH2) | 4 µM | 9.7 µM |  | 
CC[C@H](C)[C@H](NC(=O)[C@H](CCCNC(=N)N)NC(=O)[C@@H](NC(=O)[C@H](CC(C)C)NC(=O)[C@H](CC(N)=O)NC(=O)[C@H](Cc1c[nH]c2ccccc12)NC(=O)c1ccc(-c2ccccc2)cc1)C(C)C)C(=O)NCC(=O)N[C@@H](CC(C)C)C(=O)N[C@@H](CC(C)C)C(=O)N[C@@H](CCCNC(=N)N)C(N)=O [Compound 145] ({Benzoyl(4-Ph)}-WNLVRIGLLR-NH2) |  |  | 2.2 µM | 7.3 µM
CC[C@H](C)[C@H](NC(=O)[C@H](CCCNC(=N)N)NC(=O)[C@@H](NC(=O)[C@H](CC(C)C)NC(=O)[C@H](CC(N)=O)NC(=O)[C@H](Cc1c[nH]c2ccccc12)NC(=O)CCCCc1ccccc1)C(C)C)C(=O)NCC(=O)N[C@@H](CC(C)C)C(=O)N[C@@H](CC(C)C)C(=O)N[C@@H](CCCNC(=N)N)C(N)=O [Compound 146] ({Pentanoyl(5-Ph)}-WNLVRIGLLR-NH2) | 1.7 µM | 11 µM |  | 
CC[C@H](C)[C@H](NC(=O)[C@H](CCCNC(=N)N)NC(=O)[C@@H](NC(=O)[C@H](CC(C)C)NC(=O)[C@H](CC(N)=O)NC(=O)[C@H](Cc1c[nH]c2ccccc12)NC(=O)C1CCC(c2ccccc2)CC1)C(C)C)C(=O)NCC(=O)N[C@@H](CC(C)C)C(=O)N[C@@H](CC(C)C)C(=O)N[C@@H](CCCNC(=N)N)C(N)=O (stereo partly drawn) [Compound 147] (X39-WNLVRIGLLR-NH2) | 0.41 µM | 2.6 µM |  | 
CC[C@H](C)[C@H](NC(=O)[C@H](CCCNC(=N)N)NC(=O)[C@@H](NC(=O)[C@H](CC(C)C)NC(=O)[C@H](CC(N)=O)NC(=O)[C@H](Cc1c[nH]c2ccccc12)NC(=O)CCCC(C)(C)C)C(C)C)C(=O)NCC(=O)N[C@@H](CC(C)C)C(=O)N[C@@H](CC(C)C)C(=O)N[C@@H](CCCNC(=N)N)C(N)=O [Compound 148] (X2-WNLVRIGLLR-NH2) | 11 µM | 19 µM |  | 
CC[C@H](C)[C@H](NC(=O)[C@H](CCCNC(=N)N)NC(=O)[C@@H](NC(=O)[C@H](CC(C)C)NC(=O)[C@H](CC(N)=O)NC(=O)[C@H](Cc1c[nH]c2ccccc12)NC(=O)CC(C)CC(C)(C)C)C(C)C)C(=O)NCC(=O)N[C@@H](CC(C)C)C(=O)N[C@@H](CC(C)C)C(=O)N[C@@H](CCCNC(=N)N)C(N)=O (stereo partly drawn) [Compound 149] (X40-WNLVRIGLLR-NH2) | 8.9 µM | 11 µM |  | 
CC[C@H](C)[C@H](NC(=O)[C@H](CCCNC(=N)N)NC(=O)[C@@H](NC(=O)[C@H](CC(C)C)NC(=O)[C@H](CC(N)=O)NC(=O)[C@H](Cc1c[nH]c2ccccc12)NC(=O)c1cc(-c2ccncc2)[nH]n1)C(C)C)C(=O)NCC(=O)N[C@@H](CC(C)C)C(=O)N[C@@H](CC(C)C)C(=O)N[C@@H](CCCNC(=N)N)C(N)=O [Compound 150] (X16-WNLVRIGLLR-NH2) | 8.2 µM | 22 µM |  | 
CC[C@H](C)[C@H](NC(=O)[C@H](CCCNC(=N)N)NC(=O)[C@@H](NC(=O)[C@H](CC(C)C)NC(=O)[C@H](CC(N)=O)NC(=O)[C@H](Cc1c[nH]c2ccccc12)NC(=O)CCC1CCCCC1)C(C)C)C(=O)NCC(=O)N[C@@H](CC(C)C)C(=O)N[C@@H](CC(C)C)C(=O)N[C@@H](CCCNC(=N)N)C(N)=O [Compound 151] ({Propanoyl(3-cHex)}-WNLVRIGLLR-NH2) | 2.5 µM | 6.9 µM |  | 
CC[C@H](C)[C@H](NC(=O)[C@H](CCCNC(=N)N)NC(=O)[C@@H](NC(=O)[C@H](CC(C)C)NC(=O)[C@H](CC(N)=O)NC(=O)[C@H](Cc1c[nH]c2ccccc12)NC(=O)CCc1ccc(N)cc1)C(C)C)C(=O)NCC(=O)N[C@@H](CC(C)C)C(=O)N[C@H](C(=O)N[C@@H](CCCNC(=N)N)C(N)=O)[C@@H](C)O [Compound 161] (X29-WNLVRIGLTR-NH2) | 5 µM | ≥ 50 µM |  | 
CC[C@H](C)[C@H](NC(=O)[C@H](CCCNC(=N)N)NC(=O)[C@@H](NC(=O)[C@H](CC(C)C)NC(=O)[C@H](CC(N)=O)NC(=O)[C@H](Cc1c[nH]c2ccccc12)NC(=O)CCCN1CCOCC1)C(C)C)C(=O)NCC(=O)N[C@@H](CC(C)C)C(=O)N[C@H](C(=O)N[C@@H](CCCNC(=N)N)C(N)=O)[C@@H](C)O [Compound 162] (X27-WNLVRIGLTR-NH2) | 37 µM | ≥ 50 µM |  | 
CC[C@H](C)[C@H](NC(=O)[C@H](CCCNC(=N)N)NC(=O)[C@@H](NC(=O)[C@H](CC(C)C)NC(=O)[C@H](CC(N)=O)NC(=O)[C@H](Cc1c[nH]c2ccccc12)NC(=O)CCC(=O)c1ccc(S(C)(=O)=O)cc1)C(C)C)C(=O)NCC(=O)N[C@@H](CC(C)C)C(=O)N[C@H](C(=O)N[C@@H](CCCNC(=N)N)C(N)=O)[C@@H](C)O [Compound 163] (X43-WNLVRIGLTR-NH2) | 37 µM | ≥ 50 µM |  | 
CC[C@H](C)[C@H](NC(=O)[C@H](CCCNC(=N)N)NC(=O)[C@@H](NC(=O)[C@H](CC(C)C)NC(=O)[C@H](CC(N)=O)NC(=O)[C@H](Cc1c[nH]c2ccccc12)NC(=O)CCc1cccc(N)c1)C(C)C)C(=O)NCC(=O)N[C@@H](CC(C)C)C(=O)N[C@H](C(=O)N[C@@H](CCCNC(=N)N)C(N)=O)[C@@H](C)O [Compound 164] (X10-WNLVRIGLTR-NH2) | 12 µM | ≥ 50 µM |  | 
CC[C@H](C)[C@H](NC(=O)[C@H](CCCNC(=N)N)NC(=O)[C@@H](NC(=O)[C@H](CC(C)C)NC(=O)[C@H](CC(N)=O)NC(=O)[C@H](Cc1c[nH]c2ccccc12)NC(=O)CCC(=O)c1ccc(C)cc1)C(C)C)C(=O)NCC(=O)N[C@@H](CC(C)C)C(=O)N[C@H](C(=O)N[C@@H](CCCNC(=N)N)C(N)=O)[C@@H](C)O [Compound 165] (X37-WNLVRIGLTR-NH2) | 18 µM | ≥ 50 µM |  | 
CC[C@H](C)[C@H](NC(=O)[C@H](CCCNC(=N)N)NC(=O)[C@@H](NC(=O)[C@H](CC(C)C)NC(=O)[C@H](CC(N)=O)NC(=O)[C@H](Cc1c[nH]c2ccccc12)NC(=O)CCc1ccc(OC)cc1)C(C)C)C(=O)NCC(=O)N[C@@H](CC(C)C)C(=O)N[C@H](C(=O)N[C@@H](CCCNC(=N)N)C(N)=O)[C@@H](C)O [Compound 166] ({Propanoyl(3-(4-MeO-Ph))}-WNLVRIGLTR-NH2) | 5.9 µM | ≥ 50 µM |  | 
CC[C@H](C)[C@H](NC(=O)[C@H](CCCNC(=N)N)NC(=O)[C@@H](NC(=O)[C@H](CC(C)C)NC(=O)[C@H](CC(N)=O)NC(=O)[C@H](Cc1c[nH]c2ccccc12)NC(=O)CCC(=O)N1CCOCC1)C(C)C)C(=O)NCC(=O)N[C@@H](CC(C)C)C(=O)N[C@H](C(=O)N[C@@H](CCCNC(=N)N)C(N)=O)[C@@H](C)O [Compound 167] ({Morpholide-Suc}-WNLVRIGLTR-NH2) | 43 µM | ≥ 50 µM |  | 
CC[C@H](C)[C@H](NC(=O)[C@H](CCCNC(=N)N)NC(=O)[C@@H](NC(=O)[C@H](CC(C)C)NC(=O)[C@H](CC(N)=O)NC(=O)[C@H](Cc1c[nH]c2ccccc12)NC(=O)CCc1cccc(O)c1)C(C)C)C(=O)NCC(=O)N[C@@H](CC(C)C)C(=O)N[C@H](C(=O)N[C@@H](CCCNC(=N)N)C(N)=O)[C@@H](C)O [Compound 168] (X30-WNLVRIGLTR-NH2) | 7.8 µM | ≥ 50 µM |  | 
CC[C@H](C)[C@H](NC(=O)[C@H](CCCNC(=N)N)NC(=O)[C@@H](NC(=O)[C@H](CC(C)C)NC(=O)[C@H](CC(N)=O)NC(=O)[C@H](Cc1c[nH]c2ccccc12)NC(=O)CCCNC(=O)OCc1ccccc1)C(C)C)C(=O)NCC(=O)N[C@@H](CC(C)C)C(=O)N[C@H](C(=O)N[C@@H](CCCNC(=N)N)C(N)=O)[C@@H](C)O [Compound 169] ({Cbz-GABA}-WNLVRIGLTR-NH2) | 6.8 µM | ≥ 50 µM |  | 
CC[C@H](C)[C@H](NC(=O)[C@H](CCCNC(=N)N)NC(=O)[C@@H](NC(=O)[C@H](CC(C)C)NC(=O)[C@H](CC(N)=O)NC(=O)[C@H](Cc1c[nH]c2ccccc12)NC(=O)CCc1ccc(O)cc1)C(C)C)C(=O)NCC(=O)N[C@@H](CC(C)C)C(=O)N[C@H](C(=O)N[C@@H](CCCNC(=N)N)C(N)=O)[C@@H](C)O [Compound 170] (Desaminotyrosyl-WNLVRIGLTR-NH2) | 3.1 µM | ≥ 50 µM |  | 
CC[C@H](C)[C@H](NC(=O)[C@H](CCCNC(=N)N)NC(=O)[C@@H](NC(=O)[C@H](CC(C)C)NC(=O)[C@H](CC(N)=O)NC(=O)[C@H](Cc1c[nH]c2ccccc12)NC(=O)CCc1ccc(N)nc1)C(C)C)C(=O)NCC(=O)N[C@@H](CC(C)C)C(=O)N[C@H](C(=O)N[C@@H](CCCNC(=N)N)C(N)=O)[C@@H](C)O [Compound 171] (X35-WNLVRIGLTR-NH2) | 7.7 µM | ≥ 50 µM |  | 
CC[C@H](C)[C@H](NC(=O)[C@H](CCCNC(=N)N)NC(=O)[C@@H](NC(=O)[C@H](CC(C)C)NC(=O)[C@H](CC(N)=O)NC(=O)[C@H](Cc1c[nH]c2ccccc12)NC(=O)c1ccc(N2CCOCC2)nc1)C(C)C)C(=O)NCC(=O)N[C@@H](CC(C)C)C(=O)N[C@H](C(=O)N[C@@H](CCCNC(=N)N)C(N)=O)[C@@H](C)O [Compound 172] (X8-WNLVRIGLTR-NH2) | 8.5 µM | ≥ 50 µM |  | 
CC[C@H](C)[C@H](NC(=O)[C@H](CCCNC(=N)N)NC(=O)[C@@H](NC(=O)[C@H](CC(C)C)NC(=O)[C@H](CC(N)=O)NC(=O)[C@H](Cc1c[nH]c2ccccc12)NC(=O)CCc1cccnc1)C(C)C)C(=O)NCC(=O)N[C@@H](CC(C)C)C(=O)N[C@H](C(=O)N[C@@H](CCCNC(=N)N)C(N)=O)[C@@H](C)O [Compound 173] ({Propanoyl(3-(3-pyridyl))}-WNLVRIGLTR-NH2) | 9.8 µM | ≥ 50 µM |  | 
